The results in this text go back to US20230404921A1, “LYOTROPIC LIQUID CRYSTALLINE PHASE PARTICLE” (priority 2020, published 2023).

Converted amounts (≈) assume the structure as drawn. Like-named read-outs stand apart in the source and are kept apart here.

In assay [1] the test system is Pseudomonas aeruginosa (ATCC 2835). In words: MTS based cell viability assay. The conditions noted are these: for inhibition at 0.5 µg/mL: ATCC2835, drug conc 0.5 ug/ml; for inhibition at 2.5 µg/mL: ATCC2835, drug conc 2.5 ug/ml; for inhibition at 5 µg/mL: ATCC2835, drug conc 5 ug/ml; for inhibition at 7.5 µg/mL: ATCC2835, drug conc 7.5 ug/ml; for inhibition at 10 µg/mL: ATCC2835, drug conc 10 ug/ml; for inhibition at 15 µg/mL: ATCC2835, drug conc 15 ug/ml; for inhibition at 20 µg/mL: ATCC2835, drug conc 20 ug/ml; for inhibition at 25 µg/mL: ATCC2835, drug conc 25 ug/ml.

In assay [2] the test system is fluconazole-resistant Cryptococcus neoformans. In words: Antimicrobial assay MIC-50 / MIC-90, 96 well plate. The conditions noted are these: for MIC50: Cryptococcus neoformans. Format: cell-based.
Assay [3] concerns Candida albicans (ATCC10251). In words: Fungal cell viability assay (MTS).
Where [4] appears, read: Pseudomonas aeruginosa, read-out: Percentage inhibition.

For orientation: inhibition means the drop in the measured response relative to a control, in per cent. Turning to `CC1(C)S[C@@H]2[C@H](NC(=O)[C@H](N)c3ccccc3)C(=O)N2[C@H]1C(=O)O` [Ampicillin], in assay [1] (setting [4]), the inhibition at 0.5 µg/mL was found to be 39%, the inhibition at 2.5 µg/mL came out at 39.8%, the inhibition at 5 µg/mL worked out at 41.9% and the inhibition at 7.5 µg/mL worked out at 42.8%. In addition, in assay [1] (setting [4]), the inhibition at 10 µg/mL worked out at 46.4%, the inhibition at 15 µg/mL is 62.2%, the inhibition at 20 µg/mL is 69.9% and the inhibition at 25 µg/mL is 72.3%. In assay [1] (drug conc 0.5 ug/ml), this compound yielded a Percentage inhibition of 38.64%.

On to `OC(Cn1cncn1)(Cn1cncn1)c1ccc(F)cc1F` [Fluconazole only, Fluconazole], for which, in assay [2] (pH 5.17), the MIC50 was determined as 12.4 µg/mL (≈ 40.4 µM) and the MIC-90 entry is on record as “fails to reach MIC-90”. Moreover, the MIC50 in assay [2] (pH 7.08, read-out: MIC-50) was determined as 12.2 µg/mL (≈ 39.7 µM).

As to `C[C@@H]1[C@H](O)[C@@H](C)/C=C/C=C/C=C/C=C/C=C/C=C/C=C/[C@H](O[C@@H]2O[C@H](C)[C@@H](O)[C@H](N)[C@@H]2O)C[C@@H]2O[C@](O)(C[C@@H](O)C[C@@H](O)[C@H](O)CC[C@@H](O)C[C@@H](O)CC(=O)O[C@H]1C)C[C@H](O)[C@H]2C(=O)O` [amphotericin, Amphotericin B], the “concentration required to achieve 98% inhibition” value in assay [3] stood at 10 µg/mL.

For the compound `CO[C@@H]1[C@@H](OC(N)=O)[C@@H](O)[C@H](Oc2ccc3c(O)c(NC(=O)c4ccc(O)c(CC=C(C)C)c4)c(=O)oc3c2C)OC1(C)C` [novobiocin, Novobiocin], the inhibition at 80 µg/mL in assay [1] (Pseudomonas aeruginosa, ATCC2835, drug conc 80 ug/ml, read-out: Percentage inhibition) was 13%.

For the compound `CN[C@H](CC(C)C)C(=O)N[C@H]1C(=O)N[C@@H](CC(N)=O)C(=O)N[C@H]2C(=O)N[C@H]3C(=O)N[C@H](C(=O)N[C@H](C(=O)O)c4cc(O)cc(O)c4-c4cc3ccc4O)[C@H](O)c3ccc(c(Cl)c3)Oc3cc2cc(c3O[C@@H]2O[C@H](CO)[C@@H](O)[C@H](O)[C@H]2O[C@H]2C[C@](C)(N)[C@H](O)[C@H](C)O2)Oc2ccc(cc2Cl)[C@H]1O` [vancomycin, Vancomycin], in assay [1] (setting [4]), the inhibition at 0.5 µg/mL was determined as 1.24%, the inhibition at 2.5 µg/mL amounted to 9.83%, the inhibition at 5 µg/mL came to 11.6% and the inhibition at 7.5 µg/mL is 14.2%. In addition, in assay [1] (setting [4]), the inhibition at 10 µg/mL is 16.6%, the inhibition at 15 µg/mL is 17.6%, the inhibition at 20 µg/mL turned out to be 18% and the inhibition at 25 µg/mL was 18.4%.
